{"source": "the kinase profiling compilation of Christmann-Franck et al. (2016)", "assay_in_all_cases": "radiometric filter-binding kinase assay, Kinase HotSpot", "settings_in_all_cases": "compound 0.5 µM; ATP 10 µM", "key": {"ACVRL1 (human)": {"molecular_target": "ACVRL1 (human) (UniProt P37023)", "sequence (P37023 whole entry, looked up)": "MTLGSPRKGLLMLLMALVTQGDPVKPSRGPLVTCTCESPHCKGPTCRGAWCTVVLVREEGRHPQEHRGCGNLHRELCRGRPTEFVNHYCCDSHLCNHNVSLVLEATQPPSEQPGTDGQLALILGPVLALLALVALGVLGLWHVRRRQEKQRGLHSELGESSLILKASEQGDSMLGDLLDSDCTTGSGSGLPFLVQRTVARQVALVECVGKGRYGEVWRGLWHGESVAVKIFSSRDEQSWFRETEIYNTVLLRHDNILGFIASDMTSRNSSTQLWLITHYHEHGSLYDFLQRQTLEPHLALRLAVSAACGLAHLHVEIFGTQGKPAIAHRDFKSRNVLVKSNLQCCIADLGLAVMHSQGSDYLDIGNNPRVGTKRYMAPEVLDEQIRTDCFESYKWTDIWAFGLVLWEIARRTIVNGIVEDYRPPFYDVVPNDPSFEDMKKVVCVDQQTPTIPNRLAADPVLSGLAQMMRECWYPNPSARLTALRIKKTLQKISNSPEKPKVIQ"}, "AKT1 (human)": {"molecular_target": "AKT1 (human) (UniProt P31749)"}, "AURKB (human)": {"molecular_target": "AURKB (human) (UniProt Q96GD4)"}, "BRSK2 (human)": {"molecular_target": "BRSK2 (human) (UniProt Q8IWQ3)"}, "CAMK2G (human)": {"molecular_target": "CAMK2G (human) (UniProt Q13555)", "sequence (Q13555 whole entry, looked up)": "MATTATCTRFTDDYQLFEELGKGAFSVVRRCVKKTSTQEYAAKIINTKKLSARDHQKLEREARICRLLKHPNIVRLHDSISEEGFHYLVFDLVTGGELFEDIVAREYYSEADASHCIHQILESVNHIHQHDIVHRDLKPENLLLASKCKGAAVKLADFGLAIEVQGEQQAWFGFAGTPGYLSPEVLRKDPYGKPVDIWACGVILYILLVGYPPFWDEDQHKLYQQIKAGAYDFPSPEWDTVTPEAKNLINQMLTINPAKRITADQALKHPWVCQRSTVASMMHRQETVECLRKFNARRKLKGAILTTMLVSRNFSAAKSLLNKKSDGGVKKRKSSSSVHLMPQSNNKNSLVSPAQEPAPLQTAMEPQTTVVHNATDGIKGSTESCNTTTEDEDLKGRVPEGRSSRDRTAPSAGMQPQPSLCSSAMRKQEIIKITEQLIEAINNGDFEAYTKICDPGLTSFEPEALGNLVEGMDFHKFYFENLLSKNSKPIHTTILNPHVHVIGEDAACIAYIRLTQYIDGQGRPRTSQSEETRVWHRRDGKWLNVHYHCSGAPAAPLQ"}, "CAMKK2 (human)": {"molecular_target": "CAMKK2 (human) (UniProt Q96RR4)"}, "CDC42BPB (human)": {"molecular_target": "CDC42BPB (human) (UniProt Q9Y5S2)"}, "CDK1 CCNA2 (human)": {"molecular_target": "CDK1 CCNA2 (human) (UniProt P06493+P20248)"}, "CDK2 CCNE1 (human)": {"molecular_target": "CDK2 CCNE1 (human) (UniProt P24941+P24864)"}, "CDK4 CCND1 (human)": {"molecular_target": "CDK4 CCND1 (human) (UniProt P24385+P11802)"}, "CDK5 CDK5R1 p35 (human)": {"molecular_target": "CDK5 CDK5R1 p35 (human) (UniProt Q00535+Q15078)"}, "CHEK1 (human)": {"molecular_target": "CHEK1 (human) (UniProt O14757)"}, "DDR2 (human)": {"molecular_target": "DDR2 (human) (UniProt Q16832)", "sequence (Q16832 whole entry, looked up)": "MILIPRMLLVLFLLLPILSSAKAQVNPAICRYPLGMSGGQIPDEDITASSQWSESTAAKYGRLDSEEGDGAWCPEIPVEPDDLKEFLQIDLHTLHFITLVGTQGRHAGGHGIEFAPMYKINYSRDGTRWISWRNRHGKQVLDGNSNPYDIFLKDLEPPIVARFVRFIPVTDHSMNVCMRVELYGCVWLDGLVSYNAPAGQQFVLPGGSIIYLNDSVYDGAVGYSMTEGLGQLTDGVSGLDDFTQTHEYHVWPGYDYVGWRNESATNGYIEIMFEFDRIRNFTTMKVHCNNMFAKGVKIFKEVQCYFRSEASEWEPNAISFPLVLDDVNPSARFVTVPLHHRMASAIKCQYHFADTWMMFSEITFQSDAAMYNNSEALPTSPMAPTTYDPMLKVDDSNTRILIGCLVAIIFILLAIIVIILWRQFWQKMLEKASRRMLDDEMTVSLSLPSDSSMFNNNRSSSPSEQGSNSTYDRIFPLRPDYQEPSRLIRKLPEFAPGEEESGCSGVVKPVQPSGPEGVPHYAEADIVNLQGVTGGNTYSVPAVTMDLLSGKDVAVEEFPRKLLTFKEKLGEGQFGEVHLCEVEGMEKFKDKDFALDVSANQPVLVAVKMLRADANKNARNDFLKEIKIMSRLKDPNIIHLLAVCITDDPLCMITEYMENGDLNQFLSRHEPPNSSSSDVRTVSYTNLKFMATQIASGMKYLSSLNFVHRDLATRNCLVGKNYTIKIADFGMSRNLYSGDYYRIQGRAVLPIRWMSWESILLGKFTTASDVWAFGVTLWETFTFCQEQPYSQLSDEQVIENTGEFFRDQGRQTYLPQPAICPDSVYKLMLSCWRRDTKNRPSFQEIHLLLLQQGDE"}, "FGFR4 (human)": {"molecular_target": "FGFR4 (human) (UniProt P22455)"}, "FLT3 (human)": {"molecular_target": "FLT3 (human) (UniProt P36888)"}, "GRK6 (human)": {"molecular_target": "GRK6 (human) (UniProt P43250)", "sequence (P43250 whole entry, looked up)": "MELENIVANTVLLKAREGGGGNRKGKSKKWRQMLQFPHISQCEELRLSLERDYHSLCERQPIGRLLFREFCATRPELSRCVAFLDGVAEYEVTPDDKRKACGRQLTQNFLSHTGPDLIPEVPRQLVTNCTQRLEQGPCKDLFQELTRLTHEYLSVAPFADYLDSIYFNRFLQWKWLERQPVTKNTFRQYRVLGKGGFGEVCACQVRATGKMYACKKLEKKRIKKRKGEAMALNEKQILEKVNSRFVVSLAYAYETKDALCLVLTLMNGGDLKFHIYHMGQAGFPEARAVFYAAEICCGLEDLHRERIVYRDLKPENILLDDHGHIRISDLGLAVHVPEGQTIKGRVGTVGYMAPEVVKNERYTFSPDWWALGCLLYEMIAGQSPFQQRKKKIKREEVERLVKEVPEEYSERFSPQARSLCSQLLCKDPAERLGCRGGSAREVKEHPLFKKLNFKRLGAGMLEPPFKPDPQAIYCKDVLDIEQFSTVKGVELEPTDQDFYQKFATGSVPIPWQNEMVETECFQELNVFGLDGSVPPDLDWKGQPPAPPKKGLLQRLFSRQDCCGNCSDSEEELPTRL"}, "GSG2 (human)": {"molecular_target": "GSG2 (human) (UniProt Q8TF76)"}, "GSK3B (human)": {"molecular_target": "GSK3B (human) (UniProt P49841)"}, "HIPK2 (human)": {"molecular_target": "HIPK2 (human) (UniProt Q9H2X6)"}, "INSR (human)": {"molecular_target": "INSR (human) (UniProt P06213)"}, "IRAK1 (human)": {"molecular_target": "IRAK1 (human) (UniProt P51617)"}, "ITK (human)": {"molecular_target": "ITK (human) (UniProt Q08881)"}, "MAP2K1 (human)": {"molecular_target": "MAP2K1 (human) (UniProt Q02750)", "sequence (Q02750 whole entry, looked up)": "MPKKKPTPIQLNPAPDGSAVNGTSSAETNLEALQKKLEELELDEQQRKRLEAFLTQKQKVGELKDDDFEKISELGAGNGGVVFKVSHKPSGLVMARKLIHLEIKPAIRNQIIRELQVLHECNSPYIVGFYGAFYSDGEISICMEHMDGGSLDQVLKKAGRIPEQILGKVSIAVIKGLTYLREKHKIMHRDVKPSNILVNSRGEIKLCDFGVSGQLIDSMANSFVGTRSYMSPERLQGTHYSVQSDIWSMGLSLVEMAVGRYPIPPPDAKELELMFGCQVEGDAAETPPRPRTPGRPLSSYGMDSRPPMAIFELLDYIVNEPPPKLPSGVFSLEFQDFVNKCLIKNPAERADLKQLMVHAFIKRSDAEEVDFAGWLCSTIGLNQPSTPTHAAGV"}, "MAP3K10 (human)": {"molecular_target": "MAP3K10 (human) (UniProt Q02779)"}, "MAP3K2 (human)": {"molecular_target": "MAP3K2 (human) (UniProt Q9Y2U5)"}, "MAP3K9 (human)": {"molecular_target": "MAP3K9 (human) (UniProt P80192)"}, "MAPK11 (human)": {"molecular_target": "MAPK11 (human) (UniProt Q15759)", "sequence (Q15759 whole entry, looked up)": "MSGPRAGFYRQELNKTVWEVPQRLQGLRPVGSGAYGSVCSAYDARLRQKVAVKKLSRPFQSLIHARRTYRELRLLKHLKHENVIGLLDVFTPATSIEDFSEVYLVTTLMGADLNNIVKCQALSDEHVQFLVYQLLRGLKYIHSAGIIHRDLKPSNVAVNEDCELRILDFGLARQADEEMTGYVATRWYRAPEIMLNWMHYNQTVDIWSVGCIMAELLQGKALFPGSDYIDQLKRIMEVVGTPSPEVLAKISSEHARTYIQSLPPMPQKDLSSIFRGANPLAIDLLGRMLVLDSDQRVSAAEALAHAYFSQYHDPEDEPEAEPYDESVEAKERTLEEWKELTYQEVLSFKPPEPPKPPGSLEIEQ"}, "MAPK14 (human)": {"molecular_target": "MAPK14 (human) (UniProt Q16539)"}, "MATK (human)": {"molecular_target": "MATK (human) (UniProt P42679)"}, "NEK11 (human)": {"molecular_target": "NEK11 (human) (UniProt Q8NG66)"}, "NLK (human)": {"molecular_target": "NLK (human) (UniProt Q9UBE8)"}, "PASK (human)": {"molecular_target": "PASK (human) (UniProt Q96RG2)"}, "PIM3 (human)": {"molecular_target": "PIM3 (human) (UniProt Q86V86)"}, "PLK1 (human)": {"molecular_target": "PLK1 (human) (UniProt P53350)", "sequence (P53350 whole entry, looked up)": "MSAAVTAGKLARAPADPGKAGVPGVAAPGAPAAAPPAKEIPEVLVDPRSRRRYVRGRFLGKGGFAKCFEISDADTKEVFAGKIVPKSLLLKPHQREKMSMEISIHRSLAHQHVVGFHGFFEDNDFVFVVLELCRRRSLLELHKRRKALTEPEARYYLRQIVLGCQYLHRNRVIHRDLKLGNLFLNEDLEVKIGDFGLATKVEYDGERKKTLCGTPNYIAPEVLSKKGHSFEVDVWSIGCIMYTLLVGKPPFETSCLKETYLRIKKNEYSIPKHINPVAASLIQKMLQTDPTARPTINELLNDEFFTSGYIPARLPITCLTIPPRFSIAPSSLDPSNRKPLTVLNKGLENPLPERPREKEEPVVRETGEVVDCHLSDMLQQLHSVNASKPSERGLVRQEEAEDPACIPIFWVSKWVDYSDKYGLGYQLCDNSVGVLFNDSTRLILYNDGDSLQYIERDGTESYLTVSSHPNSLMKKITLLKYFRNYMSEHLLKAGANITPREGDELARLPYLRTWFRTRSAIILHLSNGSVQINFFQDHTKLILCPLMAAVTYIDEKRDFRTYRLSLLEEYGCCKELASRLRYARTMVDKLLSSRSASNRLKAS"}, "RPS6KA5 KD2 (human)": {"molecular_target": "RPS6KA5 KD2 (human) (UniProt O75582)"}, "SRMS (human)": {"molecular_target": "SRMS (human) (UniProt Q9H3Y6)"}, "SRPK1 (human)": {"molecular_target": "SRPK1 (human) (UniProt Q96SB4)"}, "STK39 (human)": {"molecular_target": "STK39 (human) (UniProt Q9UEW8)"}, "STK4 (human)": {"molecular_target": "STK4 (human) (UniProt Q13043)", "sequence (Q13043 whole entry, looked up)": "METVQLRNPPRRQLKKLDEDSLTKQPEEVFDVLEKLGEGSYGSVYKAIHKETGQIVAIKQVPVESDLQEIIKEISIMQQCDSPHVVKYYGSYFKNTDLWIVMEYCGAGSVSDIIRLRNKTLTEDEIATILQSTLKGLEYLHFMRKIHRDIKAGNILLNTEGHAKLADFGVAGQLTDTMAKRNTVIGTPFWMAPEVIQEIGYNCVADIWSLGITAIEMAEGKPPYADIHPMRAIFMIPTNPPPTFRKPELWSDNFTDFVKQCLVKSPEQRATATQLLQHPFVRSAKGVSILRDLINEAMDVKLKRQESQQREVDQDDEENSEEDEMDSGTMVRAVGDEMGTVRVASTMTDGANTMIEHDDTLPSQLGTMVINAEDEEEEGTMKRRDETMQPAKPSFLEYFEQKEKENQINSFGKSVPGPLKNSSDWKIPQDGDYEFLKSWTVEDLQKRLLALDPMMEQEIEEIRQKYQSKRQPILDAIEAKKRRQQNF"}, "TNK2 (human)": {"molecular_target": "TNK2 (human) (UniProt Q07912)"}, "TSSK1B (human)": {"molecular_target": "TSSK1B (human) (UniProt Q9BXA7)"}, "TXK (human)": {"molecular_target": "TXK (human) (UniProt P42681)", "sequence (P42681 whole entry, looked up)": "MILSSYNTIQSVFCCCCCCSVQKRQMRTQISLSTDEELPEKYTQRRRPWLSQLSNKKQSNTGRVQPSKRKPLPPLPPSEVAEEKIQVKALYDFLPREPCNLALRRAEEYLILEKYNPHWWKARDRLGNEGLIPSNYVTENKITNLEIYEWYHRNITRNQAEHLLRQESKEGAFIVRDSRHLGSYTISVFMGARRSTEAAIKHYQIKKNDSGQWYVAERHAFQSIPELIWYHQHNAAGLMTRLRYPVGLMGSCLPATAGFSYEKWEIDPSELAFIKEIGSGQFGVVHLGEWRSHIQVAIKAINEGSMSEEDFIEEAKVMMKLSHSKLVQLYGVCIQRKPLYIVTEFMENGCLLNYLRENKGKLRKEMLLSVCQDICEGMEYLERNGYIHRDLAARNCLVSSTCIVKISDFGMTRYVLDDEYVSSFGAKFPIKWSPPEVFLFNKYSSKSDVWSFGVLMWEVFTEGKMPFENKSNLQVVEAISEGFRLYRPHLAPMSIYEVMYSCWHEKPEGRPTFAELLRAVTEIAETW"}}, "data": [{"smiles": "O=C(Nc1ccc(Cl)cc1)c1ccccc1NCc1ccncc1", "values": [{"measurement": "residual activity", "setting": "ACVRL1 (human)", "result": 98.9, "unit": "%"}, {"measurement": "residual activity", "setting": "AKT1 (human)", "result": 97.6, "unit": "%"}, {"measurement": "residual activity", "setting": "AURKB (human)", "result": 77.7, "unit": "%"}, {"measurement": "residual activity", "setting": "BRSK2 (human)", "result": 102, "unit": "%"}, {"measurement": "residual activity", "setting": "CAMK2G (human)", "result": 89.2, "unit": "%"}, {"measurement": "residual activity", "setting": "CAMKK2 (human)", "result": 93.9, "unit": "%"}, {"measurement": "residual activity", "setting": "CDC42BPB (human)", "result": 79.9, "unit": "%"}, {"measurement": "residual activity", "setting": "CDK1 CCNA2 (human)", "result": 91.8, "unit": "%"}, {"measurement": "residual activity", "setting": "CDK2 CCNE1 (human)", "result": 94.3, "unit": "%"}, {"measurement": "residual activity", "setting": "CDK4 CCND1 (human)", "result": 104, "unit": "%"}, {"measurement": "residual activity", "setting": "CDK5 CDK5R1 p35 (human)", "result": 90.4, "unit": "%"}, {"measurement": "residual activity", "setting": "CHEK1 (human)", "result": 96.4, "unit": "%"}, {"measurement": "residual activity", "setting": "DDR2 (human)", "result": 88.9, "unit": "%"}, {"measurement": "residual activity", "setting": "FGFR4 (human)", "result": 84.1, "unit": "%"}, {"measurement": "residual activity", "setting": "FLT3 (human)", "result": 91.5, "unit": "%"}, {"measurement": "residual activity", "setting": "GRK6 (human)", "result": 101, "unit": "%"}, {"measurement": "residual activity", "setting": "GSG2 (human)", "result": 95.5, "unit": "%"}, {"measurement": "residual activity", "setting": "GSK3B (human)", "result": 89.3, "unit": "%"}, {"measurement": "residual activity", "setting": "HIPK2 (human)", "result": 93, "unit": "%"}, {"measurement": "residual activity", "setting": "INSR (human)", "result": 88, "unit": "%"}, {"measurement": "residual activity", "setting": "IRAK1 (human)", "result": 117, "unit": "%"}, {"measurement": "residual activity", "setting": "ITK (human)", "result": 94.1, "unit": "%"}, {"measurement": "residual activity", "setting": "MAP2K1 (human)", "result": 96.8, "unit": "%"}, {"measurement": "residual activity", "setting": "MAP3K10 (human)", "result": 104, "unit": "%"}, {"measurement": "residual activity", "setting": "MAP3K2 (human)", "result": 92.8, "unit": "%"}, {"measurement": "residual activity", "setting": "MAP3K9 (human)", "result": 89, "unit": "%"}, {"measurement": "residual activity", "setting": "MAPK11 (human)", "result": 91.4, "unit": "%"}, {"measurement": "residual activity", "setting": "MAPK14 (human)", "result": 128, "unit": "%"}, {"measurement": "residual activity", "setting": "MATK (human)", "result": 99.3, "unit": "%"}, {"measurement": "residual activity", "setting": "NEK11 (human)", "result": 104, "unit": "%"}, {"measurement": "residual activity", "setting": "NLK (human)", "result": 87.2, "unit": "%"}, {"measurement": "residual activity", "setting": "PASK (human)", "result": 97.1, "unit": "%"}, {"measurement": "residual activity", "setting": "PIM3 (human)", "result": 93, "unit": "%"}, {"measurement": "residual activity", "setting": "PLK1 (human)", "result": 103, "unit": "%"}, {"measurement": "residual activity", "setting": "RPS6KA5 KD2 (human)", "result": 92.5, "unit": "%"}, {"measurement": "residual activity", "setting": "SRMS (human)", "result": 97.9, "unit": "%"}, {"measurement": "residual activity", "setting": "SRPK1 (human)", "result": 109, "unit": "%"}, {"measurement": "residual activity", "setting": "STK39 (human)", "result": 94.7, "unit": "%"}, {"measurement": "residual activity", "setting": "STK4 (human)", "result": 98.7, "unit": "%"}, {"measurement": "residual activity", "setting": "TNK2 (human)", "result": 99.3, "unit": "%"}, {"measurement": "residual activity", "setting": "TSSK1B (human)", "result": 103, "unit": "%"}, {"measurement": "residual activity", "setting": "TXK (human)", "result": 97.7, "unit": "%"}]}, {"smiles": "NC(=O)c1ccc(N(C(N)=O)c2c(F)cccc2F)nc1-c1ccc(F)cc1F", "values": [{"measurement": "residual activity", "setting": "ACVRL1 (human)", "result": 99.3, "unit": "%"}, {"measurement": "residual activity", "setting": "AKT1 (human)", "result": 84.7, "unit": "%"}, {"measurement": "residual activity", "setting": "AURKB (human)", "result": 91.3, "unit": "%"}, {"measurement": "residual activity", "setting": "BRSK2 (human)", "result": 96.6, "unit": "%"}, {"measurement": "residual activity", "setting": "CAMK2G (human)", "result": 105, "unit": "%"}, {"measurement": "residual activity", "setting": "CAMKK2 (human)", "result": 101, "unit": "%"}, {"measurement": "residual activity", "setting": "CDC42BPB (human)", "result": 96.5, "unit": "%"}, {"measurement": "residual activity", "setting": "CDK1 CCNA2 (human)", "result": 101, "unit": "%"}, {"measurement": "residual activity", "setting": "CDK2 CCNE1 (human)", "result": 93.1, "unit": "%"}, {"measurement": "residual activity", "setting": "CDK4 CCND1 (human)", "result": 96.8, "unit": "%"}, {"measurement": "residual activity", "setting": "CDK5 CDK5R1 p35 (human)", "result": 99.9, "unit": "%"}, {"measurement": "residual activity", "setting": "CHEK1 (human)", "result": 89.2, "unit": "%"}, {"measurement": "residual activity", "setting": "DDR2 (human)", "result": 100, "unit": "%"}, {"measurement": "residual activity", "setting": "FGFR4 (human)", "result": 96.2, "unit": "%"}, {"measurement": "residual activity", "setting": "FLT3 (human)", "result": 97.2, "unit": "%"}, {"measurement": "residual activity", "setting": "GRK6 (human)", "result": 97.1, "unit": "%"}, {"measurement": "residual activity", "setting": "GSG2 (human)", "result": 81.3, "unit": "%"}, {"measurement": "residual activity", "setting": "GSK3B (human)", "result": 101, "unit": "%"}, {"measurement": "residual activity", "setting": "HIPK2 (human)", "result": 100, "unit": "%"}, {"measurement": "residual activity", "setting": "INSR (human)", "result": 104, "unit": "%"}, {"measurement": "residual activity", "setting": "IRAK1 (human)", "result": 94.2, "unit": "%"}, {"measurement": "residual activity", "setting": "ITK (human)", "result": 105, "unit": "%"}, {"measurement": "residual activity", "setting": "MAP2K1 (human)", "result": 89, "unit": "%"}, {"measurement": "residual activity", "setting": "MAP3K10 (human)", "result": 104, "unit": "%"}, {"measurement": "residual activity", "setting": "MAP3K2 (human)", "result": 122, "unit": "%"}, {"measurement": "residual activity", "setting": "MAP3K9 (human)", "result": 112, "unit": "%"}, {"measurement": "residual activity", "setting": "MAPK11 (human)", "result": 22.3, "unit": "%"}, {"measurement": "residual activity", "setting": "MAPK14 (human)", "result": 5.23, "unit": "%"}, {"measurement": "residual activity", "setting": "MATK (human)", "result": 77.6, "unit": "%"}, {"measurement": "residual activity", "setting": "NEK11 (human)", "result": 92.9, "unit": "%"}, {"measurement": "residual activity", "setting": "NLK (human)", "result": 15.8, "unit": "%"}, {"measurement": "residual activity", "setting": "PASK (human)", "result": 103, "unit": "%"}, {"measurement": "residual activity", "setting": "PIM3 (human)", "result": 97.7, "unit": "%"}, {"measurement": "residual activity", "setting": "PLK1 (human)", "result": 95.1, "unit": "%"}, {"measurement": "residual activity", "setting": "RPS6KA5 KD2 (human)", "result": 92.8, "unit": "%"}, {"measurement": "residual activity", "setting": "SRMS (human)", "result": 92.9, "unit": "%"}, {"measurement": "residual activity", "setting": "SRPK1 (human)", "result": 99, "unit": "%"}, {"measurement": "residual activity", "setting": "STK39 (human)", "result": 93.7, "unit": "%"}, {"measurement": "residual activity", "setting": "STK4 (human)", "result": 101, "unit": "%"}, {"measurement": "residual activity", "setting": "TNK2 (human)", "result": 96.1, "unit": "%"}, {"measurement": "residual activity", "setting": "TSSK1B (human)", "result": 83, "unit": "%"}, {"measurement": "residual activity", "setting": "TXK (human)", "result": 104, "unit": "%"}]}]}
